Where two headings read alike, the source gives them in different places. Where no end group is shown, it is not given here.
Tests used:
[1] = tested on: senescent TP53 knockout MCF10a cells; experiment: ES2 viability in TP53 knockout vs wildtype MCF10a cells; assay type: cell-based, human; conditions: range of ES2 treatments
Method: A375-Luc/iRFP cells were purchased from Creative Biogene (CSC-RR0254). B16-F10 cells were purchased (ATCC Cat# CRL-6475, RRID:CVCL_0159). MCF7 cells were purchased (ATCC Cat# HTB-22, RRID:CVCL_0031). IMR90 cells were purchased (ATCC Cat# CCL-186, RRID:CVCL_0347). A375-Luc/iRFP, B16-F10, IMR90, and MCF7 cells were cultured in Dulbecco's Modified Eagle Medium (DMEM), 10% fetal bovine serum (FBS) and 1X penicillin-streptomycin (PS). HCT-116 cells were purchased (ATCC Cat# CCL-247, RRID:CVCL_0291). DLD-1 cells were purchased (ATCC Cat# CCL-221, RRID:CVCL_0248). SW480 cells were purchased (ATCC Cat# CCL-228, RRID:CVCL_0546). HCT-116, DLD-1, and SW480 cells were cultured in Roswell Park Memorial Institute 1640 (RPMI 1640), 10% FBS, and 1X PS. […]
Cell lines were treated with chemotherapy, doxorubicin (Sigma, Cat. No. 2252) to induce senescence (200 nM for HCT116, 100 nM for B16-F10 and MCF7, 50 nM for SW480 and DLD-1, 40 nM for A375-Luc/iRFP and MCF10a). […] Cellular proliferation was quantified using the Promega CellTiter 96™ AQueous One Solution Cell Proliferation Assay (MTS) after 2 hours according to the manufacturer's protocol (Promega, G3581). […]

FOXO4 = biological target: T1, FOXO4 (Homo sapiens, UniProt P98177); experiment: Bio-layer Interferometry, FOXO4; assay type: binding
T1 construct: purchased OriGene Technologies TP760655
T1 sequence (P98177 whole entry): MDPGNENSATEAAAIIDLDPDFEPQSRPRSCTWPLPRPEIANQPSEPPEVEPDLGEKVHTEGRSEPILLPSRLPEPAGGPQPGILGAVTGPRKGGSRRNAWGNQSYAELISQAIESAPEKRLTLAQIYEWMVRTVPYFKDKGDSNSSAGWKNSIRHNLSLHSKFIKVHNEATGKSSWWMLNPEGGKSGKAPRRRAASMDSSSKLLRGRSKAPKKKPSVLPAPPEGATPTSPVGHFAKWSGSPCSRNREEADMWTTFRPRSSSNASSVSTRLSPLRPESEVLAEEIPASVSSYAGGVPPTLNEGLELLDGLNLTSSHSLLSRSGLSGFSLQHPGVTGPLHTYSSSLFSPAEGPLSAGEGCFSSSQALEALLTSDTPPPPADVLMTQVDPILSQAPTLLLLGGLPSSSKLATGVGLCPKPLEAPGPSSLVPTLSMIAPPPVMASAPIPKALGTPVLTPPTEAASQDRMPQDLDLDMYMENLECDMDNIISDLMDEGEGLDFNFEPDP
Method: (§1) Bio-layer Interferometry (BLI) measurements were performed on a ForteBio Octet RED384 instrument (Molecular Devices) using ForteBio Data Acquisition software 9.0 and ForteBio biosensors (Molecular Devices) according to the manufacturer's instructions. Kinetic assays were carried out at 30°C using settings of Standard Kinetics Acquisition rate (5.0 Hz, averaging by 20) at a sample plate shake speed of 1,000 rpm. Streptavidin sensors (SA) (ForteBio) equilibrated in PBS were mock loaded (no ligand reference sensor) or loaded with 50 nM of N- terminal biotinylated ES2 peptide (New England Peptide, Inc.) with an approximate response of 1 nm. Ligand loaded SA sensors equilibrated in Kinetics buffer (ForteBio) to establish a baseline, were dipped into wells containing 2-fold dilutions of TP53 (Millipore Sigma Aldrich; Cat# 23-034), FOXO4 (OriGene Technologies; Cat# TP760655) or GFP analytes in kinetics buffer, or buffer alone (reference sample). Increasing concentrations of analytes ranging from 6.2 - 200 nM were allowed to associate for 240 secs, followed by 600 sec dissociation step where the TP53/FOXO4-bound sensors were washed with kinetics buffer. Binding curves were analysed using ForteBio Data Analysis HT 10.0 evaluation software. To control for background signal and non-specific binding, raw experimental data were processed by subtracting reference biosensor and reference sample (no ligand). Processed data from at least six different concentrations of analyte binding were globally fit to a 1:1 Langmuir binding model to calculate the association rate constant ka, the dissociation rate constant kd to achieve R^2 > 0.90. Equilibrium dissociation constants KD which defines the strength of the interaction or affinity was calculated as the kinetic dissociation rate constant divided by the kinetic association rate constant.

TP53 = biological target: T2, TP53 (Homo sapiens, UniProt P04637); experiment: Bio-layer Interferometry, TP53; assay type: binding; conditions: BLI
T2 construct: purchased Millipore Sigma Aldrich 23-034
T2 sequence (P04637 whole entry): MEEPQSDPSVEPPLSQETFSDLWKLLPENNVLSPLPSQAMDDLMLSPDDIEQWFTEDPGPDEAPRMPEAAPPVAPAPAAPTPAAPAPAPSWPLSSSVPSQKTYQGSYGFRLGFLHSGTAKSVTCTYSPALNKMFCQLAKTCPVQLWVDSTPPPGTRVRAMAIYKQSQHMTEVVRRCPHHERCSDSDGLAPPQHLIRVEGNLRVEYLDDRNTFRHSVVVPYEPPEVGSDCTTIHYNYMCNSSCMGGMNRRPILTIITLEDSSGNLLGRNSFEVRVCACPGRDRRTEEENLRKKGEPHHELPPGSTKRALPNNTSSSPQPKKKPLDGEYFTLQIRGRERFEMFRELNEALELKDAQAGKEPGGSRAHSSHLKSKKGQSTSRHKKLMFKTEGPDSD
Method: as §1

FOXO4-TP53 foci = experiment: Proximity Ligation Assay; assay type: cell-based, human; conditions: 8 µM ES2, 1 hour
Method: Senescent and dividing A375 cells were plated in 96-well plates (Cellvis P96-1.5P) at concentration of 20,000 cells per well. The following day, the cells were treated with 8 µM ES2 for 0, 1, and 4 hours. The plate was then fixed with 4% paraformaldehyde for 10 minutes at room temperature. Cells were washed with PBS twice then permeabilized with 0.1% Triton™ X-100 in PBS for 15 minutes. The duolink® In Situ Red Starter Kit Mouse/Rabbit was then used according to manufacturer's protocol with exception of 1:10 dilution of PLUS and MINUS PLA probes. Primary antibodies used were FOXO4 (Cell Signaling Technology Cat# 9472, RRID:AB_10831833, diluted 1:1000), TP53BP1 (BD Biosciences Cat# 612523, RRID:AB_399824, diluted 1:2000), and TP53 (Santa Cruz Cat# sc-126, RRID:AB_628082, diluted 1:500). Z-stacks with 0.34 um steps were captured on a Zeiss Axio Observer Z.1 inverted microscope using a Plan-Apochromat 40 × 0.95 NA lens. The system is setup for widefield fluorescence imaging using a Colibri 7 LED source and a Hamamatsu Orca-flash 4.0 LT black and white camera. The widefield z-stacks were flattened into maximum intensity projections as a pre-processing step before the analysis. Fluorescent foci were counted using the Zeiss Zen software Analysis feature. Briefly, the DAPI staining was used to define the nuclear regions. […] The total number of foci per nucleus was recorded.

## PRKGGRRRRAWGRRRRRRRRRRRRRRAPRKRLTLA [ES2]
[1]
  ES2 mediated cell death in p53−/− vs p53+/+ senescent MCF10a: resistant to ES2 mediated cell death
FOXO4; BLI KD ratio
  affinity for FOXO4 compared to TP53: approximately 4 fold
FOXO4; BLI, 1:1 Langmuir binding model, read-out: association rate ka
  kon: 117000 M⁻¹ s⁻¹
FOXO4; BLI, biotinylated ES2 immobilized on streptavidin sensors, analyte 6.25-200 nM, 30°C, global 1:1 Langmuir fit
  kd: 7.7e-05 ± 7.2e-07 s⁻¹
FOXO4; BLI, biotinylated ES2 immobilized on streptavidin sensors, analyte 6.25-200 nM, 30°C, global 1:1 Langmuir fit, read-out: ka
  kon: 120000 M⁻¹ s⁻¹
FOXO4; BLI, biotinylated ES2 immobilized on streptavidin sensors, analyte 6.25-200 nM, 30°C, kd/ka
  Kd: 0.66 ± 0.01 nM
TP53; 1:1 Langmuir binding model, read-out: association rate ka
  kon: 38000 M⁻¹ s⁻¹
TP53; biotinylated ES2 immobilized on streptavidin sensors, analyte 6.25-200 nM, 30°C, global 1:1 Langmuir fit
  kd: 8.7e-05 ± 6.3e-07 s⁻¹
TP53; biotinylated ES2 immobilized on streptavidin sensors, analyte 6.25-200 nM, 30°C, global 1:1 Langmuir fit, read-out: ka
  kon: 38000 M⁻¹ s⁻¹
TP53; biotinylated ES2 immobilized on streptavidin sensors, analyte 6.25-200 nM, 30°C, kd/ka
  Kd: 2.3 ± 0.02 nM
FOXO4-TP53 foci; dividing A375 cells
  effect on FOXO4-TP53 foci in dividing cells: no effect on FOXO4-TP53 foci in dividing cells
FOXO4-TP53 foci; senescent A375 cells
  reduction of FOXO4-TP53 foci in senescent cells: 2 fold

Source: PMC8546421, “Molecular modelling of the FOXO4-TP53 interaction to design senolytic peptides for the elimination of senescent cancer cells” (EBioMedicine, 2021)
